Source: US8168656B2, “Indoleacetic acid and indenacetic acid derivatives as therapeutic agents with reduced gastrointestinal toxicity” (Vanderbilt University, priority 2009, dated 2012)
Numbering of substitutions follows the chain as printed.

Key:
Type in all cases: biochemical, murine
mCOX-2^V349L [1] = target: T1, mCOX-2^V349L (Mus musculus, UniProt Q05769, V335L); test: Time-dependent IC50 COX inhibition assay
T1 construct: made in house; host or cells: Sf9 insect cells (baculovirus, pVL1393)
T1 sequence (Q05769 18-604 V335L): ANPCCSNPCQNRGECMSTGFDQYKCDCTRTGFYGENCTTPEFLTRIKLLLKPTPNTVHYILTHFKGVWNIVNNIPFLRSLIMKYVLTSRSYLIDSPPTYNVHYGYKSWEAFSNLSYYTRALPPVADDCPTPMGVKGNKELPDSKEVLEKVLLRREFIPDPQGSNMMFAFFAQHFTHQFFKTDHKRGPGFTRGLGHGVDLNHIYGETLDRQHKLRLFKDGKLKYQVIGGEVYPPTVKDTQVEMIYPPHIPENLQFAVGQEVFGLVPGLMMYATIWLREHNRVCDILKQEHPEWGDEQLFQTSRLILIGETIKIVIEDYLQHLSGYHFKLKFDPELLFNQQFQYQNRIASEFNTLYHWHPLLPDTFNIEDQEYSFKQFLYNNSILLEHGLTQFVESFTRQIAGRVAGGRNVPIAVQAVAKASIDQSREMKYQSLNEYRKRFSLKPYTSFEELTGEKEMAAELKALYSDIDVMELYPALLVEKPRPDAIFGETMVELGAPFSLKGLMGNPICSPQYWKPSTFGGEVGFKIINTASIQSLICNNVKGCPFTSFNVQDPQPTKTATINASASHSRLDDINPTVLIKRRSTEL
Procedure: (§1) These mutated genes were used to assemble baculoviral constructs for large-scale expression in Sf9 cells. Purification of the expressed COX-2 protein was performed through traditional cellular fractionation and classical column chromatography. Activity or inhibition assays were performed in 100 mM Tris-HCl buffer containing 500 μM phenol, with hematin-reconstituted protein. Quantification of cyclooxygenase activity was performed by monitoring substrate (arachidonate or oxygen) consumption in a thermostatted cuvette at 37° C. using a polarographic electrode with a 5300 oxygen monitor (Yellow Springs Instrument Co. Inc., Yellow Springs, Ohio, United States of America). All inhibitors and substrates were solubilized in dimethyl sulfoxide (DMSO). Activity or inhibition assays were performed in 100 mM Tris-HCl buffer containing 500 μM phenol, with hematin-reconstituted protein. Maximal reaction velocity data were obtained from the linear portion of the oxygen uptake curves, and the data were analyzed by nonlinear regression with Prism 4.0 (GraphPad Software, San Diego, Calif., United States of America).
(§2) Time-dependent inhibition reactions were performed by pre-incubating the inhibitor and enzyme for 17 minutes at 25° C., followed by 3 minutes at 37° C. prior to the addition of 50 μM [1-^14C]-AA for 30 seconds at 37° C. Assays were terminated and analyzed for substrate consumption by thin layer chromatography as previously described (Kalgutkar et al., 2000a).
(§3) Maximal reaction velocity data were obtained from the linear portion of the oxygen uptake curves, and the data were analyzed by nonlinear regression. Instantaneous inhibition assays were performed with substrate and inhibitor added prior the initiation of the reaction by addition of protein. Time-dependent screening assays were performed by pre-incubating the inhibitor and enzyme for 17 minutes at 25° C., followed by 3 minutes at 37° C. prior to the addition of 50 μM [1-^14C]-arachidonic acid (AA) for 30 seconds at 37° C.
(§4) Assays were terminated and analyzed for substrate consumption by thin layer chromatography. […] Time-dependent COX inhibition reactions were pre-incubated at 37° C. for varying lengths of time (0-30 minutes) with various concentrations of inhibitor. All reactions were performed with [1-^14C]-AA for 30 seconds at 37° C.; reactions were terminated and analyzed as described above.
(§5) The COX reaction was allowed to proceed for 30 seconds before termination.

wild type mCOX-2 [2] = target: T2, wild type mCOX-2 (Mus musculus, UniProt Q05769); test: Time-dependent IC50 COX inhibition assay; conditions: 20 min pre-incubation, then 50 μM AA for 30 s
T2 construct: made in house; host or cells: Sf9 insect cells (baculovirus, pVL1393)
T2 sequence (Q05769 18-604): T1 sequence (Q05769 18-604 V335L) with L318V
Procedure: as §1, §2, §3, §4, §5

mCOX-2^V349L [3] = target: T1, mCOX-2^V349L; test: Kinetics of time-dependent COX inhibition
Procedure: as §4
(§6) To ensure that pseudo-first-order conditions were maintained, the enzymatic oxygenation reactions were terminated after 30 seconds to prevent extensive consumption of substrate. The decline of substrate conversion at different INDO concentrations was plotted against the pre-incubation times and fit to a single exponential decay with a plateau to determine kobs (FIG. 2).
(§7) The rate constant k2 represents the limiting forward rate constant for functionally irreversible inhibition, and KI corresponds to the inhibitor concentration that yields a rate equal to half of the limiting rate.

wild type mCOX-2 [4] = target: T2, wild type mCOX-2; test: Kinetics of time-dependent COX inhibition
Procedure: as §4, §6, §7

With `COc1ccc2c(c1)c(CC(=O)O)cn2C(=O)c1ccc(Cl)cc1` [DM-INDO, 2-Des-methylindomethacin] the “inhibition in the time-dependent IC50 assay” value (mCOX-2^V349L [1]) was “less than 20%”, the IC50 (mCOX-2^V349L [1]; 20 min pre-incubation, then 50 μM AA for 30 s) was > 16 µM and the IC50 (wild type mCOX-2 [2]) was 4 µM. For the same molecule, the “remaining activity approached (plateau) in time-dependent inhibition curves” value (mCOX-2^V349L [3]; V349L) was “about 30%”, the “higher concentrations required for V349L to achieve similar inhibition as wild type mCOX-2” value (mCOX-2^V349L [3]; V349L versus wild type mCOX-2) was ~10 fold and the “k−2 (y-intercept of linear regression analysis)” value (mCOX-2^V349L [3]; V349L, graph did not plateau, linear regression) was 0.0025 ± 0.0003 s⁻¹. For the same molecule, the “off-rate constant slower than the on-rate” value (wild type mCOX-2 [4]) was 14 fold, the “remaining activity approached (plateau) in time-dependent inhibition curves” value (wild type mCOX-2 [4]) was “about 30%” and the “on-rate constant (k2) faster than for INDO” value (wild type mCOX-2 [4]; DM-INDO versus INDO) was 14 fold. The Ki (wild type mCOX-2 [4]; time-dependent inhibition) was 26 ± 7 µM, the k2 (wild type mCOX-2 [4]; time-dependent inhibition) was 0.80 ± 0.03 s⁻¹ and the “k−2” value (wild type mCOX-2 [4]; time-dependent inhibition) was 0.05 ± 0.02 s⁻¹.
